Literature values as cited in patent publication US9750683B2, “Antifungal compositions for the treatment of skin and nails” (Veloce BioPharma, LLC, priority 2012, dated 2017).
Where two headings read alike, the source gives them in different places.

ratio of penetration (dissolved in DMSO, relative to the other solvents): 60
ratio of penetration (dissolved in alcohol): 3
ratio of penetration (dissolved in benzene): 1
ratio of penetration (dissolved in dimethylacetamide): 40
ratio of penetration (dissolved in dimethylformamide): 7
Structure (SMILES): COC1=CC(=O)C[C@@H](C)[C@]12Oc1c(Cl)c(OC)cc(OC)c1C2=O [griseofulvin]
